Assay results published in US20190209506A1, “METHODS OF REDUCING OR PREVENTING OXIDATION OF LDL OR LIPID MEMBRANES IN A SUBJECT IN NEED THEREOF” (Amarin Pharmaceuticals Ireland Limited, priority 2018, published 2019).
Where “and” joins values, the source holds several entries; their conditions need not be identical. Identical values can stand only once.

Columns and labels:
[1] = Membrane cholesterol domain structural integrity, x-ray diffraction (Example 9); settings: D/P mole ratio 1:30, C/P 1.5:1
Protocol: Multilamellar vesicles (MLVs) were prepared as binary mixtures that include palmitoyloleoylphosphatidylcholine (POPC) (1.0 mg total phospholipid per sample) and cholesterol at an elevated cholesterol-to-phospholipid (C/P) mole ratio of 1.5:1. […] Samples were shell-dried under nitrogen gas and placed under vacuum for 3 hours to remove residual solvent at room temperature. After desiccation, each sample was resuspended in saline buffer (0.5 mM HEPES, 154 mM NaCl, pH 7.3) to yield a final phospholipid concentration of 2.5 mg/mL. Lipid suspensions were then vortexed for 3 minutes at ambient temperature to form MLVs.
Briefly, a 100 μL aliquot of each MLV preparation (containing 250 μg MLV) was transferred to a Lucite® sedimentation cell fitted with an aluminum foil substrate designed to collect MLVs into a single membrane pellet upon centrifugation. Samples were then loaded into a Sorvall AH-629 swinging bucket rotor (DuPont Corp., Wilmington, Del.) and centrifuged at 35,000 g, 5° C., for 90 minutes.
After centrifugal orientation, sample supernatants were aspirated and aluminum foil substrates, each supporting a single membrane pellet, were removed from the sedimentation cells. Sample pellets were dried for 5-10 minutes at ambient conditions, mounted onto curved glass supports, and placed in hermetically-sealed, brass or glass containers (for immediate analysis or temporary storage, respectively). All x-ray diffraction experiments were conducted at 20° C., 74% relative humidity. The latter was established by exposing membrane samples to saturated solutions of […] (K2C4H4O6.½H2O) for at least 1 hour prior to experimental analysis.
Oriented membrane samples were aligned at grazing incidence with respect to a collimated, mono-chromatic CuKα x-ray beam (Kα1 and Kα2 unresolved; λ=1.54 Å) produced by a Rigaku Rotaflex RU-200, high-brilliance microfocus generator (Rigaku-MSC, The Woodlands, Tex.) as previously described (Mason et al., Biophys. J., vol. 55(4), pages 769-778 (1989)). The samples were initially subjected to x-ray diffraction analysis at least 12 hours after formation of the membrane pellets and retested for up to several days. Analytical x-rays were generated by electron bombardment of a rotating copper anode and are filtered through a thin nickel foil to provide monochromatic radiation (λ=1.54 Å). Collimation of the x-ray beam was achieved using a single Franks mirror. Diffraction data were collected on a one-dimensional, position-sensitive electron detector (Hecus X-ray Systems, Graz, Austria) at a sample-to-detector distance of 150 mm from the sample site.
The d-space for any given membrane multi bilayer is a measurement of the unit cell periodicity of the membrane lipid bilayer (e.g., the distance from the center of one lipid bilayer to the next including surface hydration), and is calculated from Bragg's Law, hλ=2d sin θ, where h is the diffraction order, λ is the wavelength of the x-ray radiation (1.54 Å), d is the membrane lipid bilayer unit cell periodicity, and θ is the Bragg angle equal to one-half the angle between the incident beam and scattered beam.
The presence of cholesterol domains in a given membrane sample results in the production of distinct Bragg (diffraction) peaks having singular periodicity values of 34 and 17 Å (typically referred to as first- and second-order cholesterol domain peaks). Under the specific temperature and relative humidity conditions established for these experiments, the second-order, 17 Å cholesterol domain peak was well-delineated from other, neighboring cholesterol and phospholipid diffraction peaks and was thus used to quantitate relative cholesterol domain peak intensity. Routines written in Origin 8.6 (OriginLab Corporation, Northampton, Mass.) were used to determine total peak area (associated with all diffraction peaks in a given pattern) against which the second-order cholesterol domain peak was normalized.

human sdLDL [2] = test: Copper-induced sdLDL oxidation with fatty acids, TBARS/MDA (Example 14); type: biochemical; settings: 1.0 μM; for effect on lipoprotein oxidation compared to vehicle / inhibition of lipoprotein oxidation versus vehicle: 40 minutes; for effect on oxidation: 60 minutes
Protocol: Venous blood was collected from healthy volunteers into vacutainer tubes. Plasma was separated by centrifugation at 3000 g for 25 min at 4° C. and adjusted to a density of 1.020 g/mL with KBr. sdLDL was isolated from the plasma of healthy volunteers by iodixanol density gradient ultracentrifugation and adjusted to a final apolipoprotein concentration of 2 mg/mL. An aliquot of sdLDL (50 μL) was incubated with either 10 μL vehicle (ethanol) or 10 μL FA (EPA, ETE, AA, EA, DHA, DPA, ALA, LA or SA) treatment stock solution (100 μM) for 30 min at 37° C. Oxidation was initiated with addition of initiator CuSO4 (10.0 μM). At certain time points (0, 40, 60, and 120 minutes), […] were removed from each subfraction and combined with 1.0 mL thiobarbituric acid (0.5%), 10 μL trichloroacetic acid (10%), 10 μL butylated hydroxytoluene (BHT; 35 mM in ethanol), and 10 μL ethylenediaminetetraacetic acid (EDTA; 5 mM). Sample aliquots were incubated at 100° C. for 30 min and then assayed for the formation of thiobarbituric acid reactive substances (TBARS), which have a molar absorptivity (ε) value of 1.56×105 M^−1 cm^−1 at 532 nm and are largely derived from the reaction of thiobarbituric acid with MDA, a reactive aldehyde produced by sdLDL oxidation. Sample TBARS concentrations were determined spectrophotometrically by measuring sample absorbances against a standard curve derived from the hydrolysis of 1,1,3,3-tetramethoxypropane.

human sdLDL [3] = test: Copper-induced sdLDL oxidation, TBARS (Example 7); type: biochemical; settings: 10 μM; 1 hour
Protocol: An experiment to study the antioxidant effect of EPA in LDL and small dense LDL (“sdLDL”) was performed. LDL and sdLDL were isolated from the plasma of healthy volunteers by iodixanol density gradient ultracentrifugation, and adjusted to a final apolipoprotein concentration of 2 mg/mL. […] Lipid oxidation was initiated with 10 μM CuSO4 and monitored by the colorimetric detection of thiobarbituric acid reactive substances (TBARS) for 1 hr. Vitamin E was also incubated with sample aliquots as a positive control.

human LDL = test: Copper-induced oxidation of unfractionated LDL, TBARS (Example 7); type: biochemical; settings: 10 μM; 1 hour
Protocol: An experiment to study the antioxidant effect of EPA in LDL and small dense LDL (“sdLDL”) was performed. LDL and sdLDL were isolated from the plasma of healthy volunteers by iodixanol density gradient ultracentrifugation, and adjusted to a final apolipoprotein concentration of 2 mg/mL. […] Vitamin E was also incubated with sample aliquots as a positive control.

human sdLDL [4] = test: Glucose-induced sdLDL oxidation, MDA/TBARS (Example 10); type: biochemical; settings: 10 μM; glucose 200 mg/dL; 1 hr
Protocol: Vitamin E (α-tocopherol) purchased from Sigma-Aldrich was prepared in ethanol at 1.0 mM (ε=3.06×10^4M^−1 cm^−1 at 294 nm) prior to experimental use. Test compounds were further diluted in ethanol or aqueous buffer as needed. Phosphate Buffered Saline (PBS) purchased from Sigma-Aldrich was prepared in double distilled water at 10 mM (138 mM NaCl, 2.7 mM KCl, pH 7.4). Glucose prepared in PBS was added to test samples to achieve a final concentration of 11.0 mM (200 mg/dL).
LDL and sdLDL were isolated from the plasma of healthy volunteers by iodixanol density gradient ultracentrifugation and adjusted to a final apolipoprotein concentration of 10 mg/mL. […] Sample aliquots were incubated at 100° C. for 30 minutes and then assayed for the formation of thiobarbituric acid-reactive substances (TBARS), having a molar absorptivity (ε) value of 1.56×10^5 M^−1 cm^−1 at 532 nm and were derived principally from the reaction of thiobarbituric acid with malondialdehyde (MDA). Lipid oxidation was measured by the colorimetric detection of malondialdehyde (MDA), a marker of oxidative stress.

[5] = LOOH formation in membrane vesicles, fatty acid comparison (Example 16); type: biochemical; settings: 5 μM; 0.1 μM copper sulfate, 48 hours
Protocol: Iodometric approaches were used to measure in vitro LOOH formation in membrane vesicles reconstituted as binary mixtures of cholesterol and dilinoleoyl phosphatidylcholine. Vesicles were prepared at a cholesterol-to-phospholipid mole ratio of 0.6:1 and subjected to autoxidation (e.g., lipid oxidation) at 37° C. Lipid oxidation was stimulated with 0.1 μM copper sulfate for 48 hours. All FAs were delivered at 5 and 10 μM.

| Compound | % change Vs control (cholesterol domain peak intensity) [1] | Relative Cholesterol Domain Peak Intensity [1] | effect on lipoprotein oxidation compared to vehicle (human sdLDL [2]) | MDA Equivalents (Mean ± SD) (human sdLDL [2]; time point 0 min) | MDA Equivalents (Mean ± SD) (human sdLDL [2]; time point 40 min) | MDA Equivalents (Mean ± SD) (human sdLDL [2]; time point 60 min) | MDA Equivalents (Mean ± SD) (human sdLDL [2]; time point 120 min) | also measured |
| --- | --- | --- | --- | --- | --- | --- | --- | --- |
| CC1(C)[C@@H](O[C@H]2O[C@H](C(=O)O)[C@@H](O)[C@H](O)[C@H]2O[C@@H]2O[C@H](C(=O)O)[C@@H](O)[C@H](O)[C@H]2O)CC[C@]2(C)[C@H]3C(=O)C=C4[C@@H]5C[C@@](C)(C(=O)O)CC[C@]5(C)CC[C@@]4(C)[C@]3(C)CC[C@@H]12 [glycyrrhizin] | −54.9 ± 12.3% | 19.1±1.2 |  |  |  |  |  | reduction in cholesterol domain peaks compared to vehicle [1]: 54.9%; Relative Cholesterol Domain Peak Intensity ([1]; listed as Glyc): 19.1 ± 1.2 |
| CCCCCCCCCCCCCCCCCC(=O)O [SA, stearic acid] |  |  | did not completely inhibit oxidation compared to vehicle | 0.78 ± 0.01 µM | 10.60 ± 0.21 µM | 12.07 ± 0.23 µM | 12.33 ± 0.10 µM |  |
| CCCCCCCC/C=C\CCCCCCCC(=O)O [OA, oleic acid] |  |  | did not completely lipoprotein oxidation | 0.78 ± 0.13 µM | 10.98 ± 0.36 µM | 12.00 ± 0.19 µM | 12.57 ± 0.38 µM |  |
| CCCCC/C=C\C/C=C\CCCCCCCC(=O)O [LA, linoleic acid] |  |  | did not completely lipoprotein oxidation | 0.57 ± 0.12 µM | 10.74 ± 0.27 µM | 11.89 ± 0.30 µM | 12.55 ± 0.78 µM |  |
| O=C(O)c1cccnc1 [niacin, nicotinic acid] | −35% | 27.5±12.2 |  |  |  |  |  | effect on sdLDL oxidation compared to vehicle-treated controls (human sdLDL [3]): no significant effect on sdLDL oxidation; effect on unfractionated LDL oxidation (human LDL): no significant effect on unfractionated LDL oxidation; % change Vs control (cholesterol domain peak intensity) ([1]; listed as Niacin): −35.0 ± 30.8%; Relative Cholesterol Domain Peak Intensity ([1]; listed as Niacin): 27.5 ± 12.2; effect on glucose-induced sdLDL oxidation (human sdLDL [4]): did not inhibit glucose-induced sdLDL oxidation |
| eicosatrienoic acid [ETE] |  |  |  | 0.40 ± 0.11 µM | 7.19 ± 0.43 µM | 10.90 ± 0.28 µM | 12.57 ± 0.15 µM | inhibition of lipoprotein oxidation versus vehicle (human sdLDL [2]): 32%; effect on oxidation (human sdLDL [2]): failed to inhibit oxidation at 60 minutes; reduction of LOOH levels compared to the vehicle [5]: 36% |
| CCCCCCCCCCCCCCCCCCCC(=O)O [EA, eicosanoic acid] |  |  | did not completely inhibit oxidation compared to vehicle | 1.06 ± 0.09 µM | 11.27 ± 0.28 µM | 11.65 ± 0.65 µM | 13.22 ± 0.68 µM |  |
| CC/C=C\C/C=C\C/C=C\CCCCCCCC(=O)O [ALA, α-linolenic acid] | −46.8% and −45.2 ± 11.3% | 23.2 ± 0.6 |  | 0.40 ± 0.06 µM | 8.91 ± 0.24 µM | 11.48 ± 0.18 µM | 12.94 ± 0.40 µM | inhibition of lipoprotein oxidation versus vehicle (human sdLDL [2]): 16% and 15%; effect on oxidation (human sdLDL [2]): failed to inhibit oxidation at 60 minutes; reduction of LOOH levels compared to the vehicle [5]: 27% |
| CCCCC/C=C\C/C=C\C/C=C\C/C=C\CCCC(=O)O [AA, arachidonic acid] | −45.2% and −46.8 ± 15.2% | 22.5 ± 4.3 | failed to inhibit lipoprotein oxidation | 0.67 ± 0.06 µM | 10.89 ± 0.35 µM | 11.86 ± 0.46 µM | 12.88 ± 0.60 µM |  |
| Cc1ccc(C)c(OCCCC(C)(C)C(=O)O)c1 [gemfibrozil] | 11% | 46.9±12.6 |  |  |  |  |  | effect on sdLDL oxidation compared to vehicle-treated controls (human sdLDL [3]): no significant effect on sdLDL oxidation; effect on unfractionated LDL oxidation (human LDL): no significant effect on unfractionated LDL oxidation; % change Vs control (cholesterol domain peak intensity) ([1]; listed as Gemfib): −10.9 ± 43.3%; Relative Cholesterol Domain Peak Intensity ([1]; listed as Gemfib): 46.9 ± 12.6; effect on glucose-induced sdLDL oxidation (human sdLDL [4]): did not inhibit glucose-induced sdLDL oxidation |
